Results reported in patent US12152030B2 (NOVOSTAR PHARMACEUTICALS, LTD., priority 2019, dated 2024).
Where a name gives a salt, the structure may show the parent alone.

How the values were obtained:
[1] = test system: Phosphorylated eIF4E; experiment: Intracellular peIF4E signaling assay; format: cell-based; conditions: 2 h; two hours incubation at 37° C.; read-out: peIF4E signaling cell assay IC50
Protocol: Phosphorylated eIF4E was determined using CisBio peIF4E assay kit (CisBio, catalog number 64EF4PEG). The cells were plated in a 96-well cell culture plate in a volume of 90 μL, and the number of cells per well was 5*10^4. The compounds (10×) were subjected to 3-fold serial dilution, added to the cell plate in a volume of 10 μL with the final DMSO concentration being 1%, and incubated at 37° C. for two hours. The cell plate was centrifuged at 300 g for 5 minutes, and the cell supernatant was carefully removed. The cell plate was immediately added with 50 μL of cell lysis buffer […] and incubated at 25° C. with shaking for at least 30 minutes. After homogenization by pipetting, 16 μL of cell lysate was transferred from the 96-well cell culture plate to a 384-well small-volume microwell plate. According to the kit instruction, an antibody mixture solution was prepared with a detection buffer, and was added in a volume of 4 μL to the 384-well small-volume microwell plate containing the cell lysate. The plate was covered with a plate sealer, incubated overnight at 25° C., and was read for fluorescence emission at two different wavelengths (665 nm and 615 nm) on the EnVision microplate reader counter. The emission ratio was imported into a GraphPadPrism software to fit the compound concentration (IC50) required for 50% inhibition of enzyme activity.
In this respect, IC50 values which are less than 0.05 μM were marked as “+++”, which are from 0.05 to 1.0 μM were marked as “++”, and which are greater than 1.0 and up to 100 μM were marked as “+”, and NA meant “not detected”.

[2] = target: T1, MNK1 (Homo sapiens, UniProt Q9BUB5); experiment: KinomeScan, MNK1; format: binding
From the text: (§1) KinomeScan was used to determine the kinase selectivity of compound 2.

[3] = target: MNK2 (Homo sapiens, UniProt Q9HBH9); experiment: KinomeScan, MNK2; format: binding
From the text: as §1

[4] = Pharmacokinetic study in rats; format: in vivo; conditions: male, SD, plasma, rat
Protocol: In the examples, rat pharmacokinetic tests were performed for compounds 2 and 26 to illustrate their pharmacokinetic properties in rats.
Formulation of Liquors of Compound 2: […]
Experimental Method for Pharmacokinetic Study in Rats
(§2) Six SD rats, male, weighing 180-220 g, fasting for 12 hours, were randomly divided into 2 groups, 3 in each group. The animals in group A were intragastrically administrated with the compound liquor at a dose of 10 mg/kg; the animals in group B were intravenously administrated with the compound liquor via tails at a dose of 3 mg/kg. Blank blood was harvested before administration; about 100 μL of venous blood was harvested at different time points after administration, placed in a test tube added with heparin and centrifuged, and about 50 μL of blood plasma was collected and stored at −20° C. for testing.
Formulation of Liquors of Compound 26: […]
Formulation of solution for intravenous administration: compound 26 was dissolved in a solution of 5% DMSO+10% Solutol HS15+85% (20% HP-(3-CD physiological saline).
Formulation of suspension for intragastric administration: compound 26 was dissolved in a solution of 5% DMSO+10% Solutol HS15+85% (20% HP-(3-CD physiological saline).
Administration dosage of compound 26: 1 mg/kg for intravenous injection, 3 mg/kg for intragastric administration.
as §2, with “of 3” for “of 10”, “of 1” for “of 3”

[5] = target: T1, MNK1; experiment: MNK biological enzyme assay (HTRF kinase assay), MNK1; format: biochemical; design: purchased ThermoFisher PV6023; conditions: 3 ng/ul MNK1, 1 μM STK1 peptide, 100 μM ATP
Protocol: A HTRF kinase assay kit (Cisbio, catalog number 62ST1PEB) was used to determine the MNK inhibitory activity of the compounds. All kinase reactions were performed in the reaction buffer (provided in the kit). The final MNK1 reaction involved 3 ng/ul recombinant MNK1 (ThermoFisher, PV6023), 1 μM MNK substrate peptide STK1 (provided in the kit), 100 μM ATP, and different concentrations of the inhibitory compounds of interest. The final MNK2 reaction involved 1 ng/μl recombinant MNK2 (ThermoFisher, PV5607), 1 μM MNK substrate peptide STK1 (provided in the kit), 100 μM ATP, and different concentrations of the inhibitory compounds of interest. The final DMSO concentration in each of the reactions was 1%.
The kinase reaction was performed in a final volume of 10 μl in a 384-well white flat-bottomed polystyrene plate. The MNK1/2 enzyme was pre-incubated with the compound and substrate peptide for 5 minutes, and then ATP was added thereto. After addition of ATP, the kinase reaction was incubated at 25° C. for 120 minutes or 60 minutes. The reaction was subsequently terminated by adding 5 μl of EU3+ substrate antibody detection reagent and 5 μl of XL665 detection reagent, and incubating for another 60 minutes. The luminescent signal was detected with an EnVision microplate reader counter (Perkin Elmer), and the signal from 10-point dilution series of the compounds was used to calculate the compound concentration (IC50) required to achieve 50% inhibition of enzyme activity.
In this respect, IC50 values which are less than 0.01 μM were marked as “+++”, which are from 0.01 to 0.1 μM were marked as “++”, and which are greater than 0.1 and up to 10.0 μM were marked as “+”, and NA meant “not detected”.

T1 sequence (Q9BUB5 whole entry): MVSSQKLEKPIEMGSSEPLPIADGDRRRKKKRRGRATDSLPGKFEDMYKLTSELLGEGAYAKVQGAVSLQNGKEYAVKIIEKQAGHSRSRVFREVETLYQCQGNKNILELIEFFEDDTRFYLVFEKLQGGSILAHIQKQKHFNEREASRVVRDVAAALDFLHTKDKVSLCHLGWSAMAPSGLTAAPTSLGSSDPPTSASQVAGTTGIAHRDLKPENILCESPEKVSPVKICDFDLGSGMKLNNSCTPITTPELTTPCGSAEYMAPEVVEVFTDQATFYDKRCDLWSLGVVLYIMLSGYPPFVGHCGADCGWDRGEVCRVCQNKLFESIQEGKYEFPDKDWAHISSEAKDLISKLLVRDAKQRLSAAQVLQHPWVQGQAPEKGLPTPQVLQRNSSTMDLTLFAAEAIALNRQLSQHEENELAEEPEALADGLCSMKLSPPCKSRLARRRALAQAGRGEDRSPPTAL
MNK2, sequence (Q9HBH9 whole entry): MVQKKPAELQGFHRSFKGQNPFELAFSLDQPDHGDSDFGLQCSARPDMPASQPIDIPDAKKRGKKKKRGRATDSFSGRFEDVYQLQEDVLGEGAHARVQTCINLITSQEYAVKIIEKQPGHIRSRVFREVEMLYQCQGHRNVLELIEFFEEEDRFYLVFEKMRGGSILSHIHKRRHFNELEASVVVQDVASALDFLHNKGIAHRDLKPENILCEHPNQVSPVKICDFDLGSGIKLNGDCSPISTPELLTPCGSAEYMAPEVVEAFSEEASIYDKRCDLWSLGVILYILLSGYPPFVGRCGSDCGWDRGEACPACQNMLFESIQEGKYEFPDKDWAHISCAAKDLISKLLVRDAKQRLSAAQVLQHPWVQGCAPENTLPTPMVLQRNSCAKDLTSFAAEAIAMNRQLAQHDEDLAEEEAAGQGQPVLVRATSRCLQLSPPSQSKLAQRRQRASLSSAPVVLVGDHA

- IC50 [1]: < 50 nM
- inhibition at 1 µM [2]: 97.2%
- inhibition at 1 µM [3]: 99.5%
- AUC(0-inf) ([4]; iv, 3 mg/kg): 471 ng·h/mL
- AUC(0-t) ([4]; iv, 3 mg/kg): 456 ng·h/mL
- clearance ([4]; iv, 3 mg/kg): 110 mL/min/kg
- half-life ([4]; iv, 3 mg/kg): 94.8 min
- Vd ([4]; iv, i.v., 3 mg/kg, read-out: Vz): 12.3 L/kg
- bioavailability ([4]; oral, p.o. 10 mg/kg vs i.v. 3 mg/kg): 38.8%
- AUC(0-inf) ([4]; po, 10 mg/kg): 624 ng·h/mL
- AUC(0-t) ([4]; po, 10 mg/kg): 584 ng·h/mL
- Cmax ([4]; po, 10 mg/kg): 130 ng/mL
- Tmax ([4]; po, 10 mg/kg): 2.17 h
- half-life ([4]; po, 10 mg/kg): 304 min
- IC50 [5]: 10 to 100 nM
SMILES: Cc1c2c(c(=O)n3c1C(=O)NC31CCCCC1)Nc1cc(N)ncc1C2 [Compound 2, 8′-amino-12′-methyl-6′,11′-dihydro-2′H-spiro[cyclohexane-1,3′-imidazole[1′,5′:1,6]pyrido[3,4-B][1,6]naphthyridine]-1′,5′-dione hydrochloride]
